Data taken from BindingDB's records for doi:10.1021/jm060173k (Schering-Plough Research Institute, 2007).

target: Genome polyprotein (Hepatitis C virus genotype 1a (isolate H77), UniProt P27958); test: Continuous Spectrophotometric Assay; conditions: not given
Method: Proteolytic cleavage of the ester linkage between the Nva (L-norvaline) and the chromophore (PAP) was monitored for change in absorbance at 370 nm. Initial velocities were determined using linear regression and kinetic constants were obtained by fitting the data to the Michaelis-Menten equation.

Genome polyprotein, sequence (P27958 1027-1657 limits assumed): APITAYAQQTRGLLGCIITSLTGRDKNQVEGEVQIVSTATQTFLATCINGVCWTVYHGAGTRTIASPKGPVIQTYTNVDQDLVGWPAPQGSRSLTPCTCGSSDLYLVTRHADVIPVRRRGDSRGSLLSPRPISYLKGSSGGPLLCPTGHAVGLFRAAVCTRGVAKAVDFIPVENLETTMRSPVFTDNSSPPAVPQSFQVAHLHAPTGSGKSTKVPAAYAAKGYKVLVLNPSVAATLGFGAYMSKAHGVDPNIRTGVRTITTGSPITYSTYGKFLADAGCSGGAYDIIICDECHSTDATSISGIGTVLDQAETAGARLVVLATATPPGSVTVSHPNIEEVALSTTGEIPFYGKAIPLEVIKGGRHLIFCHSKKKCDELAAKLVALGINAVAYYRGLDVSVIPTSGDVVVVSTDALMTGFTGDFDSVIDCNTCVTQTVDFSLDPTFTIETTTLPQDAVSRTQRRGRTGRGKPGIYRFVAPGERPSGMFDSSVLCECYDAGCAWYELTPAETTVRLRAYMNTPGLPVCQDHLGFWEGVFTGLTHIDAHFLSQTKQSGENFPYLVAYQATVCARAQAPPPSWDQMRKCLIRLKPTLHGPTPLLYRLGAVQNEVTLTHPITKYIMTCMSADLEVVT

Row | Ki | SMILES
1 | 1000 nM | CC(C)CC(NC(=O)C(NC(=O)NC(C)(C)C)C(C)(C)C)C(=O)NC(CC1CCC1)C(=O)C(N)=O (stereo not given) [2-{2-[(tert-butylcarbamoyl)amino]-3,3-dimethylbutanamido}-N-(1-carbamoyl-3-cyclobutyl-1-oxopropan-2-yl)-4-methylpentanamide]
2 | 960 nM | CC(C)(C)NC(=O)NC(C(=O)N1C[C@@H]2OC(C)(C)[C@@H]2C1C(=O)NC(CC1CCC1)C(=O)C(N)=O)C(C)(C)C (stereo partly drawn) [3-{[(1R,5R)-3-{2-[(tert-butylcarbamoyl)amino]-3,3-dimethylbutanoyl}-7,7-dimethyl-6-oxa-3-azabicyclo[3.2.0]heptan-2-yl]formamido}-4-cyclobutyl-2-oxobutanamide]
3 | 50 nM | CC(C)(C)NC(=O)NC(C(=O)N1C[C@H]2[C@@H](C1C(=O)NC(CC1CC1(F)F)C(=O)C(N)=O)C2(C)C)C(C)(C)C (stereo partly drawn) [3-{[(1R,5S)-3-{2-[(tert-butylcarbamoyl)amino]-3,3-dimethylbutanoyl}-6,6-dimethyl-3-azabicyclo[3.1.0]hexan-2-yl]formamido}-4-(2,2-difluorocyclopropyl)-2-oxobutanamide]
4 | 115 nM | CC(C)(C)NC(=O)NC(C(=O)N1C[C@H]2[C@@H](C1C(=O)NC(CC1CC(F)(F)C1)C(=O)C(N)=O)C2(C)C)C(C)(C)C (stereo partly drawn) [3-{[(1R,5S)-3-{2-[(tert-butylcarbamoyl)amino]-3,3-dimethylbutanoyl}-6,6-dimethyl-3-azabicyclo[3.1.0]hexan-2-yl]formamido}-4-(3,3-difluorocyclobutyl)-2-oxobutanamide]
5 | 100 nM | CC(C)C(NC(=O)NC(C)(C)C)C(=O)N1C[C@H]2[C@@H](C1C(=O)NC(CC1CC1)C(=O)C(N)=O)C2(C)C (stereo partly drawn) [3-{[(1R,5S)-3-{2-[(tert-butylcarbamoyl)amino]-3-methylbutanoyl}-6,6-dimethyl-3-azabicyclo[3.1.0]hexan-2-yl]formamido}-4-cyclopropyl-2-oxobutanamide]
6 | 19 nM | CC(C)(C)NC(=O)NC(C(=O)N1C[C@H]2[C@@H](C1C(=O)NC(CC1CCC1)C(=O)C(N)=O)C2(Cl)Cl)C(C)(C)C (stereo partly drawn) [3-{[(1S,5R)-3-{2-[(tert-butylcarbamoyl)amino]-3,3-dimethylbutanoyl}-6,6-dichloro-3-azabicyclo[3.1.0]hexan-2-yl]formamido}-4-cyclobutyl-2-oxobutanamide]
7 | 140 nM | CC(C)(C)NC(=O)NC(C(=O)N1C[C@H]2[C@@H](C1C(=O)NC(CC1CCC1)C(=O)C(N)=O)C2(F)F)C(C)(C)C (stereo partly drawn) [3-{[(1S,5R)-3-{2-[(tert-butylcarbamoyl)amino]-3,3-dimethylbutanoyl}-6,6-difluoro-3-azabicyclo[3.1.0]hexan-2-yl]formamido}-4-cyclobutyl-2-oxobutanamide]
8 | 500 nM | CC(C)(C)NC(=O)NC(C(=O)N1C[C@@H]2OC(C)(C)C[C@@H]2C1C(=O)NC(CC1CCC1)C(=O)C(N)=O)C(C)(C)C (stereo partly drawn) [3-{[(3aR,6aR)-5-{2-[(tert-butylcarbamoyl)amino]-3,3-dimethylbutanoyl}-2,2-dimethyl-hexahydro-2H-furo[2,3-c]pyrrol-4-yl]formamido}-4-cyclobutyl-2-oxobutanamide]
9 | 38 nM | CC(=O)NC(C(=O)NC(C(=O)N1C[C@H]2[C@@H](C1C(=O)NC(CC1CCC1)C(=O)C(N)=O)C2(C)C)C(C)(C)C)C(C)C (stereo partly drawn) [N-{1-[(1R,5S)-2-[(1-carbamoyl-3-cyclobutyl-1-oxopropan-2-yl)carbamoyl]-6,6-dimethyl-3-azabicyclo[3.1.0]hexan-3-yl]-3,3-dimethyl-1-oxobutan-2-yl}-2-acetamido-3-methylbutanamide]
10 | 68 nM | CC(=O)NC(C(=O)NC(C(=O)N1C[C@H]2[C@@H](C1C(=O)NC(CC1CC1)C(=O)C(N)=O)C2(C)C)C1CCCCC1)C(C)C (stereo partly drawn) [N-{2-[(1R,5S)-2-[(1-carbamoyl-3-cyclopropyl-1-oxopropan-2-yl)carbamoyl]-6,6-dimethyl-3-azabicyclo[3.1.0]hexan-3-yl]-1-cyclohexyl-2-oxoethyl}-2-acetamido-3-methylbutanamide]
11 | 230 nM | CCOC(=O)NC(C(=O)N1C[C@H]2[C@@H](C1C(=O)NC(CC1CC1)C(=O)C(N)=O)C2(C)C)C1CCCCC1 (stereo partly drawn) [ethyl N-{2-[(1R,5S)-2-[(1-carbamoyl-3-cyclopropyl-1-oxopropan-2-yl)carbamoyl]-6,6-dimethyl-3-azabicyclo[3.1.0]hexan-3-yl]-1-cyclohexyl-2-oxoethyl}carbamate]
12 | 800 nM | COC(=O)NC(C(=O)N1C[C@H]2[C@@H](C1C(=O)NC(CC1CC1)C(=O)C(N)=O)C2(C)C)C1CCCCC1 (stereo partly drawn) [methyl N-{2-[(1R,5S)-2-[(1-carbamoyl-3-cyclopropyl-1-oxopropan-2-yl)carbamoyl]-6,6-dimethyl-3-azabicyclo[3.1.0]hexan-3-yl]-1-cyclohexyl-2-oxoethyl}carbamate]
13 | 60 nM | CC(C)OC(=O)NC(C(=O)N1C[C@H]2[C@@H](C1C(=O)NC(CC1CC1)C(=O)C(N)=O)C2(C)C)C1CCCCC1 (stereo partly drawn) [propan-2-yl N-{2-[(1R,5S)-2-[(1-carbamoyl-3-cyclopropyl-1-oxopropan-2-yl)carbamoyl]-6,6-dimethyl-3-azabicyclo[3.1.0]hexan-3-yl]-1-cyclohexyl-2-oxoethyl}carbamate]

same assay, conditions: pH 6.5; 30 °C

Row | Ki | SMILES
14 | 54 nM | CCCC(NC(=O)C1[C@@H]2[C@H](CN1C(=O)C(NC(=O)NC(C)(C)C)C1CCCCC1)C2(C)C)C(=O)C(N)=O (stereo partly drawn) [3-{[(1R,5S)-3-{2-[(tert-butylcarbamoyl)amino]-2-cyclohexylacetyl}-6,6-dimethyl-3-azabicyclo[3.1.0]hexan-2-yl]formamido}-2-oxohexanamide]
15 | 100 nM | CC(C)(C)NC(=O)NC(C(=O)N1C[C@H]2[C@@H](C1C(=O)NC(C(=O)C(N)=O)C1CCC1)C2(C)C)C(C)(C)C (stereo partly drawn) [3-{[(1R,5S)-3-{2-[(tert-butylcarbamoyl)amino]-3,3-dimethylbutanoyl}-6,6-dimethyl-3-azabicyclo[3.1.0]hexan-2-yl]formamido}-3-cyclobutyl-2-oxopropanamide]
16 | 360 nM | CCCCC(NC(=O)C1[C@@H]2[C@H](CN1C(=O)C(NC(=O)OC(C)(C)C)C(C)(C)C)C2(C)C)C(=O)C(N)=O (stereo partly drawn) [tert-butyl N-{1-[(1R,5S)-2-[(1-carbamoyl-1-oxohexan-2-yl)carbamoyl]-6,6-dimethyl-3-azabicyclo[3.1.0]hexan-3-yl]-3,3-dimethyl-1-oxobutan-2-yl}carbamate]
17 | 220 nM | CCCC(NC(=O)C1[C@@H]2[C@H](CN1C(=O)C(NC(=O)OC(C)(C)C)C(C)(C)C)C2(C)C)C(=O)C(N)=O (stereo partly drawn) [tert-butyl N-{1-[(1R,5S)-2-[(1-carbamoyl-1-oxopentan-2-yl)carbamoyl]-6,6-dimethyl-3-azabicyclo[3.1.0]hexan-3-yl]-3,3-dimethyl-1-oxobutan-2-yl}carbamate]
18 | > 69000 nM | CC(C)(C)OC(=O)NC(C(=O)N1C[C@H]2[C@@H](C1C(=O)NC(C(=O)C(N)=O)C(C)(C)C)C2(C)C)C(C)(C)C (stereo partly drawn) [tert-butyl N-{1-[(1R,5S)-2-[(1-carbamoyl-3,3-dimethyl-1-oxobutan-2-yl)carbamoyl]-6,6-dimethyl-3-azabicyclo[3.1.0]hexan-3-yl]-3,3-dimethyl-1-oxobutan-2-yl}carbamate]
19 | > 3300 nM | CC(C)(C)CC(NC(=O)C1[C@@H]2[C@H](CN1C(=O)C(NC(=O)OC(C)(C)C)C(C)(C)C)C2(C)C)C(=O)C(N)=O (stereo partly drawn) [tert-butyl N-{1-[(1R,5S)-2-[(1-carbamoyl-4,4-dimethyl-1-oxopentan-2-yl)carbamoyl]-6,6-dimethyl-3-azabicyclo[3.1.0]hexan-3-yl]-3,3-dimethyl-1-oxobutan-2-yl}carbamate]
20 | 480 nM | CC(C)CC(NC(=O)C1[C@@H]2[C@H](CN1C(=O)C(NC(=O)OC(C)(C)C)C(C)(C)C)C2(C)C)C(=O)C(N)=O (stereo partly drawn) [tert-butyl N-{1-[(1R,5S)-2-[(1-carbamoyl-4-methyl-1-oxopentan-2-yl)carbamoyl]-6,6-dimethyl-3-azabicyclo[3.1.0]hexan-3-yl]-3,3-dimethyl-1-oxobutan-2-yl}carbamate]
